Columns and labels:
[1] = molecular target: T1, JAK1-JH2 protein (aa 561-860, in-house) (Homo sapiens, UniProt P23458); assay: JAK1-JH2 biochemical assay (HTRF probe displacement); assay type: binding
T1 construct: JAK1-JH2 protein (aa 561-860, in-house); made in house
Method: Assay B: JAK1-JH2 Biochemical Assay
Compounds disclosed herein were tested for blocking of JAK1-JH2 protein (aa 561-860, in-house) with its probe in an assay based on Homogeneous Time Resolved Fluorescence. Compound dilution is done according to the following protocol: (1) Prepare 500× compounds solution in DMSO from 500 uM by 5-fold dilution, total 10 doses were included; (2) Prepare 10× compounds solution in an assay buffer containing 20 mM HEPES, pH 7.5, 10 mM MgCl2, 0.005% BSA, 2 mM DTT, 0.015% Brij-35 by transferring 1 μl serial 500× stock solution into 49 μl assay buffer. 4 μL of 1.17 nM recombinant JAK1-JH2 protein was pre-incubated with 1 μl of 10× serial dilution of compounds at room temperature for 0.5 hour. […] The HTRF signals (ex337 nm, em620 nm/665 nm) were read on BMG PHERAstar FS instrument. The inhibition percentage of JAK1 interaction with its probe in presence of increasing concentrations of compounds was calculated based on the ratio of fluorescence at 615 nm to that at 665 nm. The IC50 for each compound was derived from fitting the data to the four-parameter logistic equation by Dotmatics.

[2] = molecular target: T2, TYK2-JH2 (aa 575-869, in-house) protein (Homo sapiens, UniProt P29597); assay: TYK2-JH2 biochemical assay (HTRF probe displacement); assay type: binding; conditions: Biochemical assay; for IC50: read-out: TYK2-JH2 IC50
T2 construct: TYK2-JH2 (aa 575-869, in-house) protein; made in house
Method in brief: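 HTRF probe-displacement format: compound dilutions (10 points, 5-fold, from 500 uM in DMSO at 500×) were combined with 0.2 nM TYK2-JH2 protein for 0.5 h at room temperature in HEPES pH 7.5 buffer with MgCl2, BSA, DTT and Brij-35. Percent inhibition came from the 615/665 nm fluorescence ratio, fitted to a four-parameter logistic for IC50.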

[3] = tested on: JAK2, TYK2/p-STAT4 (Tyr693) activated by IL-12 in NK-92 cell line; assay: IL-12-JAK2, TYK2/p-STAT4 (Tyr693) inhibition IC50 cellular assay; assay type: cell-based; conditions: NK92, Cellular assay; read-out: pSTAT4/IL-12 IC50
Method in brief: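 p-STAT4 (Tyr693) in lysates was measured by AlphaLISA SureFire Ultra after a 30 min IL-12 challenge (40 ng/ml final) at 37° C. Overnight-starved, IL-2-free NK-92 cells had been pretreated 1 h with compound at 10000 to 0.61 nM (4-fold, 8 points). IC50 values came from four-parameter logistic fitting.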

pSTAT5/GM-CSF = pSTAT5/GM-CSF cellular assay (JAK2 selectivity); assay type: cell-based; conditions: for Selectivity fold (TYK2/JAK2): pSTAT5/GM-CSF IC50 over pSTAT4/IL-12 IC50

T2 sequence (P29597 575-869): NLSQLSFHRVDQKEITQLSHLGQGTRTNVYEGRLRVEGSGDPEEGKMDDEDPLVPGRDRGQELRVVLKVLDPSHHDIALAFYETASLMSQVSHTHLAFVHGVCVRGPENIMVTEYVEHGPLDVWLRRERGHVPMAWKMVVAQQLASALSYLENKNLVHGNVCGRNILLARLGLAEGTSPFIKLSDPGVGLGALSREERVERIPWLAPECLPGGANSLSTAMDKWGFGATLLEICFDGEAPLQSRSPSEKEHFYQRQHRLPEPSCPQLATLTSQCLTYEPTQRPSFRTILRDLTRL
T1 sequence (P23458 561-860): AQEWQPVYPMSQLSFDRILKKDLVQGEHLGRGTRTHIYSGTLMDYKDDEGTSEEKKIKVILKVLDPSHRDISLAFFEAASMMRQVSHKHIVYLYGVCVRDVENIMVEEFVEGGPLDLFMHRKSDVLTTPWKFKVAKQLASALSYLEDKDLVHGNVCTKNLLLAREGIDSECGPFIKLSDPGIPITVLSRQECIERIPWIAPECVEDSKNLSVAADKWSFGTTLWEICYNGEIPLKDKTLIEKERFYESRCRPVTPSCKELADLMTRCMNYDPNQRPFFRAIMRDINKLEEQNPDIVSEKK

SMILES	IC50 [1] [nM]	Selectivity fold (TYK2/JAK1) ([2]; JAK1-JH2 IC50 vs TYK2-JH2 IC50) [fold]	IC50 [2] [nM]	IC50 [3] [nM]	IC50 (pSTAT5/GM-CSF) [nM]	Selectivity fold (TYK2/JAK2) (pSTAT5/GM-CSF) [fold]
CC(=O)Nc1cc(Nc2cccc(S(C)(=O)=O)c2)c(C2CCCO2)cn1 (centres unmarked) [Example A2, N-[4-[(3-methanesulfonylphenyl)amino]-5-(oxolan-2-yl)pyridin-2-yl]acetamide]	828	159	5.2	–	–	–
CC(=O)Nc1cc(Nc2cc(N3CCOC[C@@H]3C)cc(S(C)(=O)=O)n2)c(-c2ccc3c(n2)OCC(C)(C)O3)cn1 [Example Q35, (S)—N-(5-(2,2-dimethyl-2,3-dihydro-[1,4]dioxino[2,3-b]pyridin-6-yl)-4-((4-(3-methyl-morpholino)-6-(methylsulfonyl)pyridin-2-yl)amino)-pyridin-2-yl)acetamide]	–	–	0.02	0.679	1810	2665
COC1CN(c2cc(Nc3cc(NC(C)=O)ncc3-c3ccc4c(n3)OCC(C)(C)O4)nc(S(C)(=O)=O)c2)C1 [Example Q49, N-(5-(2,2-dimethyl-2,3-dihydro-[1,4]dioxino[2,3-b]pyridin-6-yl)-4-((4-(3-methoxyazetidin-1-yl)-6-(methylsulfonyl)pyridin-2-yl)amino)pyridin-2-yl)acetamide]	–	–	0.029	0.827	379	458
COC1CCN(c2cc(Nc3cc(NC(C)=O)ncc3-c3ccc4c(n3)OCC(C)(C)O4)nc(S(C)(=O)=O)c2)CC1 [Example Q52, N-(5-(2,2-dimethyl-2,3-dihydro-[1,4]dioxino[2,3-b]pyridin-6-yl)-4-((4-(4-methoxypiperidin-1-yl)-6-(methylsulfonyl)pyridin-2-yl)amino)pyridin-2-yl)acetamide]	–	–	0.038	1.33	3420	2571
CO[C@H]1C[C@@H](c2cc(Nc3cc(NC(C)=O)ncc3-c3ccc4c(n3)OCC(C)(C)O4)nc(S(C)(=O)=O)c2)C1 [Example Q53, N-(5-(2,2-dimethyl-2,3-dihydro-[1,4]dioxino[2,3-b]pyridin-6-yl)-4-((4-((cis)-3-methoxycyclobutyl)-6-(methylsulfonyl)pyridin-2-yl)amino)pyridin-2-yl)acetamide]	–	–	0.047	0.581	> 10000	>17211
CO[C@H]1C[C@H](c2cc(Nc3cc(NC(C)=O)ncc3-c3ccc4c(n3)OCC(C)(C)O4)nc(S(C)(=O)=O)c2)C1 [Example Q54]	–	–	0.037	0.56	3980	7116
CC(=O)Nc1cc(Nc2cc(-c3cnccc3C)cc(S(C)(=O)=O)n2)c(-c2ccc3c(n2)OCC(C)(C)O3)cn1 [Example Q62, N-(5-(2,2-dimethyl-2,3-dihydro-[1,4]dioxino[2,3-b]pyridin-6-yl)-4-((4-methyl-6′-(methylsulfonyl)-[3,4′-bipyridin]-2′-yl)amino)pyridin-2-yl)acetamide]	–	–	0.047	1.79	> 10000	>5586
CC(=O)Nc1cc(Nc2cc(C#N)cc(S(C)(=O)=O)n2)c(-c2ccc3c(n2)OCC(C)(C)O3)cn1 [Example Q63, N-(4-((4-cyano-6-(methylsulfonyl)pyridin-2-yl)amino)-5-(2,2-dimethyl-2,3-dihydro-[1,4]dioxino[2,3-b]pyridin-6-yl)pyridin-2-yl)acetamide]	–	–	0.051	0.755	459	608
CC(=O)Nc1cc(Nc2nc(S(C)(=O)=O)cn(C)c2=O)c(-c2ccc3c(n2)OCC(C)(C)O3)cn1 [Example Q64, N-(5-(2,2-dimethyl-2,3-dihydro-[1,4]dioxino[2,3-b]pyridin-6-yl)-4-((4-methyl-6-(methylsulfonyl)-3-oxo-3,4-dihydropyrazin-2-yl)amino)pyridin-2-yl)acetamide]	–	–	0.034	4.61	> 10000	>2169
CO[C@H]1CCCN(c2cc(Nc3cc(NC(C)=O)ncc3-c3ccc4c(n3)OCC(C)(C)O4)nc(S(C)(=O)=O)c2)C1 [Example Q65, (S)-N-(5-(2,2-dimethyl-2,3-dihydro-[1,4]dioxino[2,3-b]pyridin-6-yl)-4-((4-(3-methoxypiperidin-1-yl)-6-(methylsulfonyl)pyridin-2-yl)amino)pyridin-2-yl)acetamide]	–	–	0.029	0.685	1640	2397
CO[C@@H]1CCCN(c2cc(Nc3cc(NC(C)=O)ncc3-c3ccc4c(n3)OCC(C)(C)O4)nc(S(C)(=O)=O)c2)C1 [Example Q66, (R)-N-(5-(2,2-dimethyl-2,3-dihydro-[1,4]dioxino[2,3-b]pyridin-6-yl)-4-((4-(3-methoxypiperidin-1-yl)-6-(methylsulfonyl)pyridin-2-yl)amino)pyridin-2-yl)acetamide]	–	–	0.029	0.792	3050	3845
COCC1CCN(c2cc(Nc3cc(NC(C)=O)ncc3-c3ccc4c(n3)OCC(C)(C)O4)nc(S(C)(=O)=O)c2)C1 (centres unmarked) [Example Q73, N-(5-(2,2-dimethyl-2,3-dihydro-[1,4]dioxino[2,3-b]pyridin-6-yl)-4-((4-(3-(methoxymethyl)pyrrolidin-1-yl)-6-(methylsulfonyl)pyridin-2-yl)amino)pyridin-2-yl)acetamide]	–	–	0.025	2.84	2350	828
CC(=O)Nc1cc(Nc2cc(C3CCCOC3)cc(S(C)(=O)=O)n2)c(-c2ccc3c(n2)OCC(C)(C)O3)cn1 (centres unmarked) [Example Q75, N-(5-(2,2-dimethyl-2,3-dihydro-[1,4]dioxino[2,3-b]pyridin-6-yl)-4-((6-(methylsulfonyl)-4-(tetrahydro-2H-pyran-3-yl)pyridin-2-yl)amino)pyridin-2-yl)acetamide]	–	–	0.024	0.637	473	742
CC(=O)Nc1cc(Nc2cc(OCC3(C)COC3)cc(S(C)(=O)=O)n2)c(-c2ccc3c(n2)OCC(C)(C)O3)cn1 [Example Q98, N-(5-(2,2-dimethyl-2,3-dihydro-[1,4]dioxino[2,3-b]pyridin-6-yl)-4-((4-((3-methyloxetan-3-yl)methoxy)-6-(methylsulfonyl)pyridin-2-yl)amino)pyridin-2-yl)acetamide]	–	–	0.026	1.15	> 10000	>8695
COc1ccncc1-c1cc(Nc2cc(NC(C)=O)ncc2-c2ccc3c(n2)OCC(C)(C)O3)nc(S(C)(=O)=O)c1 [Example Q101, N-(5-(2,2-dimethyl-2,3-dihydro-[1,4]dioxino[2,3-b]pyridin-6-yl)-4-((4-methoxy-6′-(methylsulfonyl)-[3,4′-bipyridin]-2′-yl)amino)pyridin-2-yl)acetamide]	–	–	0.03	0.904	373	412
CC(=O)Nc1cc(Nc2cc(-c3cnccc3C#N)cc(S(C)(=O)=O)n2)c(-c2ccc3c(n2)OCC(C)(C)O3)cn1 [Example Q115, N-(4-((4-cyano-6′-(methyslulfonyl)-[3,4′-bipyridin]-2′-yl)amino)-5-(2,2-dimethyl-2,3-dihydro-[1,4]dioxino[2,3-b]pyridin-6-yl)pyridin-2-yl)acetamide]	–	–	0.034	0.302	> 10000	>33112
CC(=O)Nc1cc(Nc2cc(-c3cscn3)cc(S(C)(=O)=O)n2)c(-c2ccc3c(n2)OCC(C)(C)O3)cn1 [Example Q119, N-(5-(2,2-dimethyl-2,3-dihydro-[1,4]dioxino[2,3-b]pyridin-6-yl)-4-((6-(methylsulfonyl)-4-(thiazol-4-yl)pyridin-2-yl)amino)pyridin-2-yl)acetamide]	–	–	0.031	1.19	1150	965
CC(=O)Nc1cc(Nc2cccc(S(C)(=O)=O)n2)c(C2=NC(C)(C)CS2)cn1 [Example R1, N-(5-(4,4-dimethyl-4,5-dihydrothiazol-2-yl)-4-((6-(methylsulfonyl)pyridin-2-yl)amino)pyridin-2-yl)acetamide]	–	–	0.041	2.18	> 10000	>4587
